Data as given in patent US9163032B2, “Esters of DCPLA and methods of treatment using the same” (Blanchette Rockefeller Neurosciences Institute, priority 2011, dated 2015).
Where “and” joins values, the source holds several entries; their conditions need not be identical. Identical values can stand only once.

What was measured:
PKC-ε = PKC-ε translocation to membrane in SH-SY5Y neuroblastoma cells (Western Blot); format: cell-based, human; details: 1 μM (20-fold higher than ASPD), relative to control
Protocol: (§1) Cells were harvested in homogenizing buffer containing 10 mM Tris-Cl (pH 7.4), 1 mM PMSF (phenylmethylsulfonyl fluoride), 1 mM EGTA, 1 mM EDTA, 50 mM NaF, and 20 μM leupeptin, and were lysed by sonication. The homogenate was centrifuged at 100,000×g for 15 min at 4° C. to obtain the cytosolic fraction (supernatant) and membrane (pellet). The pellet was resuspended in the homogenizing buffer by sonication. For whole cell protein isolation from primary neurons, the homogenizing buffer contained 1% Triton X-100. Protein concentration was measured using the Coomassie Plus (Bradford) Protein Assay kit (Pierce, USA). Following quantification, 20 μg of protein from each sample was subjected to SDS-PAGE analysis in a 4-20% gradient Tris-Glycine gel (Invitrogen, USA). The separated protein was then transferred to a nitrocellulose membrane. The membrane was blocked with 5% BSA at room temperature for 15 min and was incubated with primary antibody overnight at 4° C. After the incubation, it was washed three times with TBS-T (Tris Buffered Saline-Tween 20) and further incubated with alkaline phosphatase conjugated secondary antibody (Jackson Immunoresearch Laboratories, USA) at 1:10000 dilution for 45 min. The membrane was finally washed three times with TBS-T and developed using the 1-step NBT-BCIP substrate (Pierce, USA). The blot was imaged in an ImageQuant RT-ECL (GE Life Sciences, Piscataway, N.J.) and densitometric quantification was performed using IMAL software (Blanchette Rockefeller Neurosciences Institute, Morgantown, W. Va.). For translocation assays, PKC activation was represented as the percentage of total protein in the membrane (membrane/cytosol+membrane).

synaptophysin = assay: Synaptophysin expression in primary hippocampal neurons (immunofluorescence, Western Blot); format: cell-based, rat; details: 1 μM, 20 hr
Protocol: (§2) Cells were grown in two chambered slides (Nunc, USA) at low density. For immunofluorescence staining, the cells were washed with PBS (pH 7.4) and fixed with 4% paraformaldehyde for 4 min. Following fixation, the cells were blocked and permeabilized with 5% serum and 0.3% Triton X-100 in 1×PBS for 30 min. Cells were washed three times with 1×PBS and incubated with primary antibodies for 1 hr at 1:100 dilution. After the incubation, the slides were again washed three times in 1×PBS and were incubated with the FITC anti-mouse IgG and Rhodamine anti-rabbit IgG for 1 hr at 1:400 dilution. The cells were further washed and stained with DAPI (4′,6-diamidino-2′-phenylindole, dihydrochloride) (Thermo Scientific, USA) to stain the nucleus. Finally, the slides were washed and mounted in Pro Long Gold antifade mounting solution (Invitrogen, USA) and were viewed under a LSM 710 Meta confocal microscope (Zeiss) at 350 nm, 490 nm, and 540 nm excitation and 470 nm, 525 nm, and 625 nm emission for DAPI, FITC, and Rhodamine respectively. Six individual fields at 63× oil lens magnification were analyzed for the mean fluorescence intensity (MFI) in each channel.
as §1
(§3) To estimate the synaptic damage caused by the ASPDs on primary hippocampal neurons, the expression of synaptophysin (a presynaptic marker) and PSD-95 (a postsynaptic marker) was measured by immunofluorescence staining. […] Following a 20 hr incubation period, the cells were stained for nucleus, PSD-95, and synaptophysin. Expression levels were calculated as the change of percentage in mean fluorescence intensity compared to untreated cells.
(§4) Primary neurons, treated and untreated, were immunostained for MAP-2, synaptophysin, and PSD-95 to determine the synaptic integrity. […] Following a 20 hr incubation period, the cells were stained for MAP-2, PSD-95, and synaptophysin as described above.

PSD-95 = PSD-95 expression in primary hippocampal neurons (immunofluorescence); format: cell-based, rat; details: 1 μM, 20 hr
Protocol: as §2, §3, §4

[1] = tested on: Phosphatidylserine (C2) Binding Site; assay: 3H-DCPLA-ME binding to rat brain slices with C1 and C2 competitors (film-autoradiography); details: rat brain slices
Protocol: To determine the binding site of DCPLA-ME, ^3H-DCPLA-ME was incubated with rat brain slices in the absence and presence of known C1 and C2 competitors. More specifically, rat brain sections were fixed with formaldehyde, sliced, and incubated with (1)^3H-DCPLA-ME alone; (2)^3H-DCPLA-ME with DCPLA; (3)^3H-DCPLA-ME with Phorbol ester; or (4)^3H-DCPLA-ME and Bryostatin 1. After incubation, the slices were washed with a buffer made of 130 mM NaCl, 5 mM MgCl, 5 mM KCl, 1 mM EGTA, and 0.1% bovine serum albumin in 10 mM HEPES-NaOH, pH 7.4, dried, and analyzed with film-autoradiography.

[2] = tested on: primary human cortical neurons; assay: 40 day culture of human primary cortical neurons: survival, synapses, branching; format: cell-based; details: 0.27 nM
Protocol: To examine the effects of PKC-ε activation, cultured human cortical neurons in serum-free artificial medium were exposed to 100 nM DCPLA-ME added every three days, along with 50% medium replacement, for 40 days. More specifically, human primary cortical neurons were grown in Neuronal Medium (ScienCell Cat No#1521) containing neuronal growth supplement (NGS) (Sciencell Cat No#1562).
Cells were plated on poly-l-lysine (0.001%) coated plates at a density of >10000 cells/cm2. Half of the media was replaced by new media every 3 days. DCPLA-ME was dissolved in 100% ethanol and added at 100 nM final concentration. Fresh DCPLA-ME (100 nM) was added every 3 days during media change. The experiments were continued for 40 days.
Human primary neurons (ScienCell Research Laboratories, USA) were thawed and plated on poly-L-lysine coated plates at a density of 10,000 cells per cm^2 and were maintained in neuronal medium (DMEM+high glucose+neuronal growth supplement, ScienCell Research Laboratories, USA) following the recommended method. Primary human neurons were then treated with either DCPLA-ME (100 nM) or bryostatin 1 (0.27 nM) for 40 days. Fresh drug was added every third day with 50% media change.

[3] = tested on: cultured primary rat hippocampal neurons; assay: Neuroprotection against ASPD induced toxicity, MTT assay, primary neurons; format: cell-based; details: 50 nM ASPD, 20 hr, activator 0.27 nM
Protocol: (§5) Viability of cells was measured by MTT assay. MTT (i.e., 3-(4,5-dimethylthiazol-2-yl)-2,5-diphenyltetrazolium bromide) is a tetrazolium salt that is cleaved to formazan by the succinate dehydrogenase, which is only active in viable cells. After solubilization of the formazan, the amount of dye can be quantified with a microplate reader at 570 nm along with a reference of 630 nm. For the MTT assay, 5×10^4 primary rat hippocampal neurons from 18-day-old embryonic Sprague-Dawley rat brains or SH-SY5Y cells were plated on each well of 24-well plates coated with poly-D-lysine. After treatment, the cells were washed with 1× PBS and were incubated with 200 μl of 1 mg/ml MTT solution (Sigma, USA) at 37° C. for 2 hr. Then the MTT-solution was removed and the cells were lysed with 200 μl isopropanol containing 0.04 M HCl and […] for 10 min. Finally, the reading was taken at 570 nm and 630 nm. All the samples were done in triplicate and the data were represented as the percentage of control.
Bryostatin 1, DCPLA, and DCPLA-ME were tested against ASPD-induced cytotoxicity to determine their neuroprotective efficacy.

[4] = tested on: rat primary hippocampal neurons; assay: Neurotoxic effect of Aβ1-42 oligomers, MTT viability assay; format: cell-based; details: 20 hr
Protocol: Amylospheroids (ASPDs) and Aβ monomers were prepared following Hoshi, M., et al. (2003) Proc Natl Acad Sci USA 100, 6370-6375, and Noguchi, A., et al. (2009) J Biol Chem 284, 32895-32905. Briefly, Aβ1-42 was dissolved in 1,1,1,3,3,3-hexafluoro-2-propanol and incubated overnight at 4° C. and then 3 hr at 37° C. The dissolved Aβ1-42 was then lyophilized in 1.5 ml polypropylene centrifuge tubes at 40 nmol/tube concentration. For preparing the ASPDs, the lyophilized Aβ was dissolved in phosphate buffered saline (PBS) without Ca^2+ or Mg^2+ at less than 50 μM concentration and rotated for 14 hr at 4° C. After incubation, the Aβ solution was purified using a 100 kDa molecular mass cutoff filter (Amicon Ultra, Millipore) and the high-molecular weight fraction was saved to obtain the most toxic ASPDs. Aβ derived diffusible ligands (ADDLs) were produced as previously described. See Lambert, M. P et al., Proc. Natl. Acad. Sci. USA, 1998, 95: 6448-6453. Briefly, Aβ1-42 was solubilized at 5 mM in dimethyl sulfoxide, diluted to 100 μM in F12k medium and was incubated at 4° C. for 24 hr. The solution was centrifuged at 14000×g for 10 min at 4° C. and the supernatant was used as the ADDLs.
as §5
To assess the neurotoxic effect of different sized oligomers, rat primary hippocampal neurons were treated with variable concentrations of these Aβ1-42 species for 20 hr. Viability of the treated cells was compared to untreated cells using the MTT assay described above.

Compound | PKC-ε membrane translocation (PKC-ε) | synaptophysin mean fluorescence intensity (synaptophysin) | PSD-95 expression (PSD-95) | 3H-DCPLA-ME binding, 30 nM competitor ([1]; 30 nM competitor) [%] | 3H-DCPLA-ME binding, 1 μM competitor ([1]; 1 μM competitor) [%] | co-localized staining of PSD-95 and synaptophysin in puncta ([2]; 30 day old neurons) | Immunostaining of PSD-95 and synaptophysin from Western blots ([2]; 40 days) | viability of ASPD-treated primary neurons [3] [%] | Viability of primary neuron ([4]; 50 nM) | Viability of primary neuron ([4]; 500 nM) | Viability of primary neuron ([4]; 1000 nM (1 μM))
Aβ Monomer: monomeric Aβ1-42 | did not affect translocation | did not change | did not change |  |  |  |  |  |  |  | 
CCC/C=C/C=C/C(=O)O[C@H]1/C(=C/C(=O)OC)C[C@H]2C[C@H]([C@@H](C)O)OC(=O)C[C@H](O)C[C@@H]3C[C@H](OC(C)=O)C(C)(C)[C@](O)(C[C@@H]4C/C(=C/C(=O)OC)C[C@H](/C=C/C(C)(C)[C@]1(O)O2)O4)O3 [Bryostatin 1] |  |  |  | 100 | 77 | increased co-localized staining | significantly higher | 73.23±3.6 |  |  | 
ADDL: Aβ derived diffusible ligands prepared from Aβ1-42, containing 6.5 monomers on average | 80.82±4.025% | 75.64±4.84 % of control |  |  |  |  |  |  | 91.15 ± 1.44 % of control | 79.01 ± 11.32 % of control | 50.98±3.8 % of control and 49.02 ± 7.26 % of control
